This data set has as its system human whole blood. It is filed as cell-based. The settings on record: both, 1 h. How it is done: In-vitro evaluation of the hemolytic influence of the preparations of this invention on human whole blood is determined as a further guide to selecting formulations with a low tendency to produce irritation around the site of injection. The hemolytic potential of a formulation on blood is evaluated by an assay of erythrocyte cytoplasmic marker enzyme, lactate dehydrogenase (LDH) which escapes from the leaky or ruptured erythrocytes into the plasma compartment of the blood. For the assay, blood is obtained from male or female Caucasian human volunteers of 18 to 65 years of age and stabilized with sodium heparin. A test formulation is mixed with an equal volume of human whole blood and incubated at 37° C. for about 1 hour. The mixture is then held at ambient temperature for 30 minutes followed by centrifugation at 1500 rpm for 10 min. The level of LDH in the supernatant is determined according to protocols known in the art. An upper limit titre is determined by measuring the LDH levels resulting from hemolysis by amiodarone hydrochloride, a compound known to result in vein irritation upon venous injection in clinical settings (PDR 1999, p. 3289). Amiodarone hydrochloride IV solution, when tested at 50 mg/mL and after dilution with 5% aqueous dextrose to 1.8 mg/mL can result in LDH values of about 8000 IU/L and about 700 IU/L, respectively.

The values that follow come from patent publication US6726919B2, “Injectable dispersion of propofol” (RTP Pharma, Inc., priority 2000, dated 2004).

Counter-ions that a name gives are not always drawn. Like-named read-outs stand apart in the source and are kept apart here.

Turning to `CCCCc1oc2ccccc2c1C(=O)c1cc(I)c(OCCN(CC)CC)c(I)c1` [Amiodarone hydrochloride, amiodarone hydrochloride], the LDH values entry is, setting by setting: (1.8 mg/mL) “about 700 IU/L”; (50 mg/mL) “about 8000 IU/L”.
